Measured values published in patent US10544190B2, “Peptide that supresses binding of beta-amyloid and rage” (ENSOL BIOSCIENCES INC., priority 2016, dated 2020).
Where a SMILES comes first, the peptide text is derived from it. Where no end group is shown, it is not given here.

Experiments:
beta-amyloid 1-42 [1] = experiment: Inhibition of entry of blood beta-amyloid 1-42 into brain I (ELISA of brain and plasma); format: in vivo; conditions: ICR mice; for beta-amyloid 1-42 concentration in the brain: 20 min before i.v. 400 μl of 25 μM beta-amyloid 1-42, brain taken 10 min after
Method: The inhibition of entry of blood beta-amyloid 1-42 into the brain by the peptide of Example 1 was experimentally verified. Specifically, in order to evaluate the effect of the peptide of Example 1 on inhibiting the entry of beta-amyloid 1-42 into the brain, which is the cause of Alzheimer's disease, 1 mg of beta-amyloid 1-42 (American Peptide Company, Sunnyvale, Calif., USA) was added with 2 ml of hexafluoroisopropanol (HFIP), allowed to stand at room temperature for 3 days, and aliquoted at 100 μl each into tubes. After evaporation of hexafluoroisopropanol (HFIP) using a speed vacuum, 10 μl of an anhydrous DMSO (dimethyl sulfoxide) solution was placed in one of the aliquoted tubes, so as to realize sufficient dissolution, after which 400 μl of phosphate buffer saline (PBS) was added thereto, thus preparing a 25 μM beta-amyloid 1-42 solution.
ICR mice (The Jackson Laboratory, Bar Harbor, Me., USA) were divided into a normal group, a control group and two test groups. The respective test groups were intraperitoneally administered with the peptide of Example 1 in amounts of 2.5 mg/kg and 25 mg/kg, and the control group was treated in the same manner as in the test group, with the exception that an excipient (10% DMSO in saline, 10 ml/kg) was used in lieu of the peptide of Example 1. After 20 min, the control group and the test groups were intravenously (i.v.) injected through the tail vein with 400 μl of 25 μM beta-amyloid 1-42. Furthermore, the normal group was treated in the same manner as in the control group, with the exception that beta-amyloid 1-42 was not added. […]
The frozen right hemisphere was added with 3 ml of a RIPA buffer (Radio Immuno Precipitation Assay buffer), sonicated, and centrifuged, after which the supernatant was isolated, followed by protein concentration measurement through BCA assay (bicinchoninic acid assay). […] The beta-amyloid 1-42 concentration in the brain was measured through ELISA in a RIPA-homogenate. […]

[2] = system: double transgenic mouse (DTg mouse) models having induced human Alzheimer's disease; experiment: Learning and memory recovery, Y-maze test in Alzheimer's model mice; format: in vivo; conditions: 50 mg/kg intraperitoneally once a day, 5 times a week, test 10 weeks after administration, control 49.44±3.88%, P<0.01
Text: The learning and memory recovery effects of the peptide of Example 1 were experimentally verified. Specifically, in order to evaluate the effect of the peptide of Example 1 on inhibiting learning and memory reduction, which are symptoms of Alzheimer's disease, 30-week-old double transgenic mouse (DTg mouse, Jackson Laboratory, USA) models having induced human Alzheimer's disease, obtained in a manner in which a human-derived gene of beta-amyloid precursor protein APP (APPsw; amyloid mutation) having Swedish mutation and a human-derived gene in the form of exon-9 deletion of a gamma secretase PSI gene were over-expressed in the brain through genetic manipulation, were used for tests.
The test animals were acclimated in an animal room after purchase in accordance with the Guidelines for Experimental Animal Tests and treated in accordance with the approved Animal Experimental Plan. The test conditions were maintained at a temperature of 23±1° C. and a humidity of 50±5%, and the light/dark cycle was 12 hr ([…]). During the testing, animals were free to consume water and feed. […]
The Y-maze test is an experiment to observe the voluntary tendency of an animal to search a new environment using short-term memory ability. […] Spontaneous alternation (%) was calculated using the following equation. […]

beta-amyloid 1-42 [3] = experiment: Biomarker change in animal models: brain beta-amyloid 1-42 by ELISA; format: in vivo, DTg mouse; conditions: DTg mice, 50 mg/kg intraperitoneally for 13 weeks; control 76.03±25.63
Method: (§1) In order to evaluate the effect of changing the biomarker using animal models in which an administration period of a total of 13 weeks was terminated in the <Evaluation of learning and memory recovery effects using animal models> test, the following test was conducted. After termination of intraperitoneal administration for a total of 13 weeks, the animal models were subjected to euthanasia using carbon dioxide (CO2) and the brain thereof was immediately extracted. Upon brain extraction, the entire brain was taken out so as not to be scratched, and was then lightly washed with saline solution. […]
(§2) The left hemisphere stored in a deep freezer at −80° C. was placed in a RIPA buffer (Radio Immuno Precipitation Assay buffer) and sonicated, thus preparing a brain homogenate. Thereafter, the amount of protein was measured through BCA assay (BicinChoninic Acid assay). […] The biomarker expression level was measured through ELISA, and ELISA assay was performed in accordance with the kit{Amyloid-beta(1-42) Elisa kit: IBL International, Hamburg, Germany (27711), TNF-alpha ELISA kit: Koma Biotech, Seoul, Korea (K0331186P), GFAP Elisa kit: Millipore Corporation, Billerica, Mass., USA (NS830)} protocol. […]
(§3) The biomarkers measured through ELISA were beta-amyloid 1-42, TNF-alpha, and GFAP (glial fibrillary acidic protein). […]

TNF-alpha = experiment: Biomarker change in animal models: brain TNF-alpha by ELISA; format: in vivo, DTg mouse; conditions: DTg mice, 50 mg/kg intraperitoneally for 13 weeks; control 1109.91±285.30; p<0.05
Method: as §1, §2, §3

[4] = system: GFAP (glial fibrillary acidic protein); experiment: Biomarker change in animal models: brain GFAP by ELISA; format: in vivo, DTg mouse; conditions: DTg mice, 50 mg/kg intraperitoneally for 13 weeks; control 70.61±26.82
Method: as §1, §2, §3

beta-amyloid 1-42 [5] = experiment: Inhibition of entry of beta-amyloid 1-42 into brain II (ELISA of brain); format: in vivo; conditions: ICR mice, peptide 25 mg/kg intraperitoneally; for Beta-amyloid 1-42 concentration in brain: 20 min before i.v. 25 μM beta-amyloid 1-42, control group 60.8 ± 14.8, normal group 0.0 ± 11.9
Method: Based on the test results of Example 1, the following test was conducted in order to evaluate whether Example 2 and Comparative Examples 1 and 2, in addition to Example 1, are effective at inhibiting the entry of beta-amyloid 1-42 into the brain.
Specifically, 1 mg ofbeta-amyloid 1-42 (American Peptide Company, Sunnyvale, Calif., USA) was added with 2 ml of hexafluoroisopropanol (HFIP), allowed to stand at room temperature for 3 days, and aliquoted at 100 μl each into tubes. After evaporation of hexafluoroisopropanol (HFIP) using a speed vacuum, 10 μl of an anhydrous DMSO (dimethyl sulfoxide) solution was placed in one of the aliquoted tubes, so as to realize sufficient dissolution, after which 400 μl of phosphate buffer saline (PBS) was added thereto, thus preparing a 25 μM beta-amyloid 1-42 solution.
ICR mice (The Jackson Laboratory, Bar Harbor, Me., USA) were divided into a normal group, a control group and four test groups. The respective test groups were intraperitoneally administered with the peptide of each of Example 1, Example 2, Comparative Example 1, and Comparative Example 2 in amounts of 25 mg/kg, and the control group was treated in the same manner as in the test group, with the exception that an excipient (10% DMSO in saline, 10 ml/kg) was used in lieu of the peptide. After 20 min, the control group and the test groups were intravenously (i.v.) injected through the tail vein with 400 μl of 25 μM beta-amyloid 1-42. Furthermore, the normal group was treated in the same manner as in the control group, with the exception that beta-amyloid 1-42 was not added. 10 min after the tail venous injection of beta-amyloid, about 50 μl of blood was collected from the infraorbital vein of each mouse using a sodium-heparinized capillary tube, after which the mouse was immediately subjected to euthanasia with carbon dioxide (CO2) gas and then the right hemisphere of the mouse was extracted and stored in liquid nitrogen. All the collected blood samples were centrifuged at 13,000 rpm for 10 min. The supernatant was isolated, placed in the prepared tube, and diluted at 1/4000, followed by ELISA (Enzyme-Linked ImmunoSorbent Assay or Enzyme-Linked ImmunoSpecific Assay) ofbeta-amyloid 1-42.
The frozen right hemisphere was added with 3 ml of a RIPA buffer (Radio Immuno Precipitation Assay buffer), sonicated, and centrifuged, after which the supernatant was isolated, followed by protein concentration measurement through BCA assay (bicinchoninic acid assay). BCA assay was performed in accordance with the kit (Thermo Scientific, Waltham, Mass., USA, Cat. No. 23227) protocol. The beta-amyloid 1-42 concentration in the brain was measured through ELISA in a RIPA-homogenate. ELISA was performed in accordance with the kit (IBL International, Hamburg, Germany, Code No. 27711) protocol.

Row | Compound | beta-amyloid 1-42 concentration in the brain (beta-amyloid 1-42 [1]; peptide 2.5 mg/kg intraperitoneally) | beta-amyloid 1-42 concentration in the brain (beta-amyloid 1-42 [1]; peptide 25 mg/kg intraperitoneally) | plasma beta-amyloid levels versus control group (beta-amyloid 1-42 [1]; peptide 2.5 and 25 mg/kg intraperitoneally, blood 10 min after i.v. beta-amyloid 1-42) | spontaneous alternation (Y-maze test) [2] | beta-amyloid 1-42 concentration in brain homogenate (beta-amyloid 1-42 [3]) | TNF-alpha concentration in brain homogenate (TNF-alpha) | GFAP concentration in brain homogenate [4] | Beta-amyloid 1-42 concentration in brain (beta-amyloid 1-42 [5]) | entry of beta-amyloid into the brain (result in words) (beta-amyloid 1-42 [5])
1 | DGEFF [Example 1, DGEFF] | 195.5 ± 5.6 pg/mg | 187.8 ± 2.4 pg/mg | not greatly different | 63.22±2.56% | 57.56±28.47 ng/mg protein | 798.99±172.90 pg/mg protein | 47.63±24.92 ng/mg protein | 54.8 ± 8.0 pg/mg protein | –
2 | DAEF [Comparative Example 1] | – | – | – | – | – | – | – | 69.5 ± 6.1 pg/mg protein | did not inhibit
3 | N[C@@H](CC(=O)O)C(=O)NCC(=O)N[C@@H](CCC(=O)O)C(=O)N[C@@H](Cc1ccccc1)C(=O)O [Example 2, DGEF] (H-DGEF-OH; N-terminus and C-terminus assumed) | – | – | – | – | – | – | – | 48.8 ± 14.7 pg/mg protein | effectively inhibited
4 | VKMDAEFR [Comparative Example 2] | – | – | – | – | – | – | – | 87.6 ± 14.9 pg/mg protein | did not inhibit
